The results in this text go back to patent publication US6630500B2, “Selected fused pyrrolocarbazoles” (Cephalon, Inc., priority 2000, dated 2003).

Common to all, as to assay type: biochemical
For assay [1], the target named is T1, VEGF receptor (human flk-1, KDR, VEGFR2) kinase domain (Homo sapiens, UniProt P35968).
T1 construct: VEGF receptor (human flk-1, KDR, VEGFR2) kinase domain; made in house
Briefly: Inhibition of VEGF receptor kinase activity (ELISA). The conditions noted are these: 40 μM ATP; for inhibition at 0.3 µM: 300 nM compound, read-out: VEGFR2 % inh. @ 300 nM; for IC50: values without % sign. The protocol:
Fused pyrrolocarbazole compounds were examined for their inhibitory effects on the kinase activity of baculovirus-expressed VEGF receptor (human flk-1, KDR, VEGFR2) kinase domain using the procedure described for the trkA kinase ELISA assay described below. The kinase reaction mixture, consisting of 50 mM Hepes, pH 7.4, 40 μM ATP, 10 mM MnCl2, 0.1% BSA, 2% DMSO, and various concentrations of inhibitor, was transferred to PLC-γ/GST-coated plates. VEGFR kinase was added and the reaction was allowed to proceed for 15 min. at 37° C. Detection of phosphorylated product was accomplished by addition of anti-phosphotyrosine antibody (UBI). A secondary enzyme-conjugated antibody was delivered to capture the antibody-phosphorylated PLC-γ/GST complex. The activity of the bound enzyme was measured via an amplified detection system (Gibco-BRL). Inhibition data were analyzed using the sigmoidal dose-response (variable slope) equation in GraphPad Prism.
Selected isomeric fused pyrrolocarbazole and isoindolone compounds can be tested for their ability to inhibit the kinase activity of baculovirus-expressed human trkA cytoplasmic domain using an ELISA-based assay as previously described (Angeles et al., Anal. Biochem. 236: 49-55, 1996). Briefly, the 96-well microtiter plate is coated with substrate solution (recombinant human phospholipase C-γl/glutathione S-transferase fusion protein (Rotin et al., EMBO J., 11: 559-567, 1992). Inhibition studies are performed in 100 μl assay mixtures containing 50 mM Hepes, pH 7.4, 40 μM ATP, 10 mM MnCl2, 0.1% BSA, 2% DMSO, and various concentrations of inhibitor. The reaction is initiated by addition of trkA kinase and allowed to proceed for 15 minutes at 37° C. An antibody to phosphotyrosine (UBI) is then added, followed by a secondary enzyme-conjugated antibody, alkaline phosphatase-labelled goat anti-mouse IgG (Bio-Rad). The activity of the bound enzyme is measured via an amplified detection system (Gibco-BRL). Inhibition data are analyzed using the sigmoidal dose-response (variable slope) equation in GraphPad Prism.
(In general: ELISA stands for enzyme-linked immunosorbent assay.)

Another assay has as its target T2, MLK3 (Homo sapiens, UniProt Q16584).
T2 construct: 2 μg/ml of baculoviral GST-MLK3KD; GST (N); made in house
Nature of the assay: Inhibition of Mixed Lineage Kinase-3 (MLK3) activity. The conditions noted are these: 100 μM ATP; for IC50: values without % sign; for inhibition at 0.1 µM: 100 nM compound. On the procedure:
The kinase activity of MLK1 was assessed using the Millipore Multiscreen TCA “in-plate” format as described for protein kinase C (Pitt & Lee, J. Biomol. Screening, 1: 47-51, 1996). Briefly, each 50-μl assay mixture contained 20 mM Hepes, pH 7.2, 5 mM EGTA, 15 mM MgCl2, 25 mM β-glycerophosphate, 60 μM ATP, 0.25 μCi [γ-^32P]ATP, 0.1% BSA, 500 μ/ml myelin basic protein (UBI #13-104), 2% DMSO, 1 μM of test compound, and 1 μg/ml of baculoviral GST-MLK1KD. Samples were incubated for 15 min at 37° C. The reaction was stopped by adding ice cold 50% TCA and the proteins were allowed to precipitate for 30 min at 4° C. The plates were then washed with ice cold 25% TCA. Supermix scintillation cocktail was added, and the plates were allowed to equilibrate for 1-2 hours prior to counting using the Wallac MicroBeta 1450 PLUS scintillation counter.
Assays were performed using the Millipore Multiscreen plate format as described for MLK1. Briefly, each 50-μl assay mixture contained 20 mM Hepes, pH 7.2, 5 mM EGTA, 15 mM MgCl2, 25 mM β-glycerophosphate, 100 μM ATP, 0.25 μCi [γ-^32P]ATP, 0.1% BSA, 500 μg/ml myelin basic protein (UBI #13-104), 2% DMSO, various concentrations of test compound, and 2 μg/ml of baculoviral GST-MLK3KD. Sample were incubated for 15 min at 37° C. The reaction was stopped by adding ice cold 50% TCA and the proteins were allowed to precipitate for 30 min at 4° C. The plates were then washed with ice cold 25% TCA. Supermix scintillation cocktail was added, and the plates were allowed to equilibrate for 1-2 hours prior to counting.

In the next assay the target is T3, MLK1 (Homo sapiens, UniProt P80192).
T3 construct: 1 μg/ml of baculoviral GST-MLK1KD; GST (N); made in house
T3 sequence (P80192 144-412 limits assumed, species assumed): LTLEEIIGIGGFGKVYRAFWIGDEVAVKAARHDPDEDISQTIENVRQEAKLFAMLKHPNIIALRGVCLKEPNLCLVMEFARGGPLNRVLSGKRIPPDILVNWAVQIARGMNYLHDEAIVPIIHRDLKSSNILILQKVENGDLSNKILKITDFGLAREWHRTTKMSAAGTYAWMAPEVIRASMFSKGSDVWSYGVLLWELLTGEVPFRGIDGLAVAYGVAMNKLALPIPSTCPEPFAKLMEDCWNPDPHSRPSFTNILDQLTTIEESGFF
Briefly: Inhibition of Mixed Lineage Kinase-1 (MLK1) activity. The conditions noted are these: 60 μM ATP; for inhibition at 0.1 µM: 100 nM compound; for IC50: values without % sign. The protocol: The kinase activity of MLK1 was assessed using the Millipore Multiscreen TCA “in-plate” format as described for protein kinase C (Pitt & Lee, J. Biomol. Screening, 1: 47-51, 1996). Briefly, each 50-μl assay mixture contained 20 mM Hepes, pH 7.2, 5 mM EGTA, 15 mM MgCl2, 25 mM β-glycerophosphate, 60 μM ATP, 0.25 μCi [γ-^32P]ATP, 0.1% BSA, 500 μ/ml myelin basic protein (UBI #13-104), 2% DMSO, […], and 1 μg/ml of baculoviral GST-MLK1KD. Samples were incubated for 15 min at 37° C. The reaction was stopped by adding ice cold 50% TCA and the proteins were allowed to precipitate for 30 min at 4° C. The plates were then washed with ice cold 25% TCA. Supermix scintillation cocktail was added, and the plates were allowed to equilibrate for 1-2 hours prior to counting using the Wallac MicroBeta 1450 PLUS scintillation counter.

T2 sequence (Q16584 117-379 limits assumed, species assumed): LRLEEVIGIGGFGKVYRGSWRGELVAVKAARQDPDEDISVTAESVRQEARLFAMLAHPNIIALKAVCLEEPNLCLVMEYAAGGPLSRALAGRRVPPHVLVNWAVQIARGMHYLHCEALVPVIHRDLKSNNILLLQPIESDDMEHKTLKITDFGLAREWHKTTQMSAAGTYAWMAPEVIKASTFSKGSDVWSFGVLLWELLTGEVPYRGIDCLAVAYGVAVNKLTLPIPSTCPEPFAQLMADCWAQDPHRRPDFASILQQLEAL
T1 sequence (P35968 834-1162 limits assumed): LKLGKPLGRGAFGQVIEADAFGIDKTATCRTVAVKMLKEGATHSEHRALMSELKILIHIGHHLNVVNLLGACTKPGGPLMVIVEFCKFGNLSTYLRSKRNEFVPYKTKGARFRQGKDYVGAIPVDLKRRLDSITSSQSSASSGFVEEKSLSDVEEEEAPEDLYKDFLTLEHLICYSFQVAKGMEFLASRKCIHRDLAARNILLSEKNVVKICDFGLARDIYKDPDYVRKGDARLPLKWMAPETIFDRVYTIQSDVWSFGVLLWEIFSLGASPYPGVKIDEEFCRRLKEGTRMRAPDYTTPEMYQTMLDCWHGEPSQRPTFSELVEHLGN

As usually defined, the IC50 is the concentration that gives 50% inhibition. A high value points to lower potency. As for `O=C1NCc2c1c1c(c3c2c2cc(CSc4ccccn4)ccc2n3CCCO)Cc2ccccc2-1` [Compound 38], the inhibition at 0.3 µM in assay [1] was found to be 45%. The compound also yielded an IC50 against MLK3 of 30 nM. For the same compound, at MLK1, the inhibition at 0.1 µM was 58%.

Regarding `CCOCc1ccc2c(c1)c1c3c(c4c(c1n2CC(C)O)Cc1ccccc1-4)C(=O)NC3` (stereo not shown) [Compound 7], the IC50 was 25 nM in assay [1] and 30 nM against MLK3. Further, the inhibition at 0.1 µM at MLK1 was 85%.

For the compound `COCc1ccc2c(c1)c1c3c(c4c(c1n2CCCO)Cc1ccccc1-4)C(=O)NC3` [Compound 2], the IC50 in assay [1] came out at 17 nM; at MLK3, 8 nM; against MLK1, 15 nM.

In the case of `CCOCc1ccc2[nH]c3c4c(c5c(c3c2c1)CNC5=O)-c1ccccc1C4` [Compound 31], the IC50 in assay [1] stood at 77 nM; against MLK3 it was 29 nM; on MLK1, 46 nM.

As for `CCOCc1ccc2[nH]c3c4c(c5c(c3c2c1)CNC5=O)-c1ccccc1C4C(C)O` (single isomer, unassigned) [Compound 14], the IC50 came out at 72 nM in assay [1] and 9 nM on MLK3. The compound further registered an inhibition at 0.1 µM on MLK1 of 93%.

For `O=C1NCc2c1c1c(c3c2c2cc(CSc4ncccn4)ccc2n3CCCO)Cc2ccccc2-1` [Compound 39], the inhibition at 0.3 µM in assay [1] was 13%. The inhibition at 0.1 µM on MLK3 was determined as 56%; at MLK1, 55%.

On to `CC(C)OCc1ccc2c(c1)c1c3c(c4c(c1n2CCCOC(=O)CCCN(C)C)Cc1ccccc1-4)C(=O)NC3` [Compound 21], for which the inhibition at 0.3 µM in assay [1] was determined as 48%. For the same compound, at MLK1, the inhibition at 0.1 µM was 40%.

On to `CC(O)c1ccc2[nH]c3c4c(c5c(c3c2c1)CNC5=O)-c1ccccc1C4` (stereo not shown) [Compound 35], for which the inhibition at 0.3 µM in assay [1] is 37%. The values for the inhibition at 0.1 µM against MLK3 and against MLK1 were 62% and 60%, respectively.

With `O=C1NCc2c1c1c(c3[nH]c4ccc(CO)cc4c23)Cc2ccccc2-1` [Compound 30], the results for the IC50 (in assay [1]; on MLK1) were 302 nM and 30 nM, respectively.

For the compound `COC(C)c1ccc2[nH]c3c4c(c5c(c3c2c1)CNC5=O)-c1ccccc1C4` (racemic) [Compound 36], in assay [1], the inhibition at 0.3 µM worked out at 12%. In addition, the inhibition at 0.1 µM against MLK3 came to 41%. Besides, the IC50 against MLK1 came out at 26 nM.

With `CCSCc1ccc2c(c1)c1c3c(c4c(c1n2CCO)Cc1ccccc1-4)C(=O)NC3` [Compound 24], the inhibition at 0.3 µM in assay [1] is 31%. Also, the inhibition at 0.1 µM is 55% on MLK3 and 62% against MLK1.

With `CC(C)OCc1ccc2c(c1)c1c3c(c4c(c1n2CCCOC(=O)CN)Cc1ccccc1-4)C(=O)NC3` [Compound 18], the IC50 in assay [1] is 23 nM; against MLK3, 23 nM; against MLK1, 47 nM.

For the compound `CC(C)SCc1ccc2c(c1)c1c3c(c4c(c1n2CCCO)Cc1ccccc1-4)C(=O)NC3` [Compound 27], the IC50 in assay [1] stood at 57 nM; on MLK1, 22 nM.

Consider `CC(O)c1ccc2c(c1)c1c3c(c4c(c1n2CCCO)Cc1ccccc1-4)C(=O)NC3` (stereo not shown) [Compound 33], for which the concentration for half-maximal inhibition (IC50) turned out to be 111 nM in assay [1], 16 nM against MLK3 and 50 nM at MLK1.

Turning to `CC(C)OCc1ccc2c(c1)c1c3c(c4c(c1n2CCCO)Cc1ccccc1-4)C(=O)NC3` [Compound 3], the values for the IC50 (in assay [1]; against MLK3; at MLK1) were 7 nM, 9 nM and 17 nM, respectively.

Take `CCOCc1ccc2c(c1)c1c3c(c4c(c1n2CCCO)Cc1ccccc1-4)C(=O)NC3` [Compound 1]: the values for the concentration for half-maximal inhibition (IC50) (in assay [1]; against MLK3; against MLK1) were 4 nM, 4 nM and 21 nM, respectively.

Take `CC(C)OCc1ccc2c(c1)c1c3c(c4c(c1n2CCCOC(=O)CCCCCN)Cc1ccccc1-4)C(=O)NC3` [Compound 23]: the inhibition at 0.3 µM in assay [1] came to 57%. Further, at MLK1, the inhibition at 0.1 µM was 31%.

Regarding `CC(C)OCc1ccc2[nH]c3c4c(c5c(c3c2c1)CNC5=O)-c1ccccc1C4` [Compound 32], the inhibition at 0.3 µM in assay [1] is 33%. Besides, the IC50 against MLK3 came to 19 nM; against MLK1, 24 nM.

Turning to `CCOC(C)c1ccc2c(c1)c1c3c(c4c(c1n2CCCO)Cc1ccccc1-4)C(=O)NC3` (stereo not shown) [Compound 10], the IC50 in assay [1] was 83 nM; on MLK3 it was 15 nM; against MLK1, 37 nM.

Regarding `CCC(O)c1ccc2c(c1)c1c3c(c4c(c1n2CCCO)Cc1ccccc1-4)C(=O)NC3` (stereo not shown) [Compound 34], the IC50 in assay [1] turned out to be 7 nM. For the same compound, the figures for the inhibition at 0.1 µM at MLK3 and against MLK1 were 32% and 45%, respectively.

Turning to `CCCCOCc1ccc2c(c1)c1c3c(c4c(c1n2CCCO)Cc1ccccc1-4)C(=O)NC3` [Compound 9], the results for the concentration for half-maximal inhibition (IC50) (in assay [1]; on MLK3; against MLK1) were 18 nM, 15 nM and 26 nM, respectively.

Turning to `CCCSCc1ccc2c(c1)c1c3c(c4c(c1n2CCCOC(=O)C(F)(F)F)Cc1ccccc1-4)C(=O)NC3` [Compound 37], the inhibition at 0.3 µM in assay [1] is 37%. Inhibition at MLK1 was half-maximal at 17 nM (IC50).

As for `COc1ccc2[nH]c3c4c(c5c(c3c2c1)CNC5=O)-c1ccccc1C4` [D, reference compound], the concentration for half-maximal inhibition (IC50) in assay [1] turned out to be 200 nM; at MLK1 it was 45 nM. Moreover, the inhibition at 0.1 µM against MLK3 turned out to be 43%.

For the compound `O=C1NCc2c1c1c(c3c2c2cc(CO)ccc2n3CCO)Cc2ccccc2-1` [Compound 28], in assay [1], the inhibition at 0.3 µM was 34%. In addition, the concentration for half-maximal inhibition (IC50) came to 74 nM at MLK3 and 76 nM on MLK1.

Consider `CCOC(C)c1ccc2c(c1)c1c3c(c4c(c1n2CCCO)Cc1ccccc1-4)C(=O)NC3` (single isomer, unassigned) [Compound 11], for which the half-maximal inhibitory concentration (IC50) in assay [1] was found to be 65 nM; against MLK3, 20 nM; against MLK1, 78 nM.

Take `CCCCOC(C)c1ccc2c(c1)c1c3c(c4c(c1n2CCCO)Cc1ccccc1-4)C(=O)NC3` (stereo not shown) [Compound 15]: the IC50 was 130 nM in assay [1], 27 nM at MLK3 and 41 nM on MLK1.

As to `CCC(C)OCc1ccc2c(c1)c1c3c(c4c(c1n2CCCO)Cc1ccccc1-4)C(=O)NC3` (stereo not shown) [Compound 4], the IC50 amounted to 12 nM in assay [1], 4 nM against MLK3 and 15 nM against MLK1.

With `CCSCc1ccc2c(c1)c1c3c(c4c(c1n2CCCO)Cc1ccccc1-4)C(=O)NC3` [Compound 25], the IC50 was 21 nM in assay [1], 12 nM on MLK3 and 22 nM against MLK1.

Consider `CC(C)OC(C)c1ccc2c(c1)c1c3c(c4c(c1n2CCCO)Cc1ccccc1-4)C(=O)NC3` (stereo not shown) [Compound 16], for which, in assay [1], the IC50 was determined as 411 nM. The figures for the inhibition at 0.1 µM against MLK3 and at MLK1 were 49% and 66%, respectively.
